Assay results as given in US9744164B2, “Neuroprotective polyphenol analogs” (Salk Institute for Biological Studies, priority 2011, dated 2017).
Like-named read-outs stand apart in the source and are kept apart here.

Assays:
[1] = test system: embolic strokes in rabbits; details: RSCEM, as published in the manuscript; cited from earlier work
[2] = test system: embolic strokes in rabbits; experiment: rabbit small clot embolic stroke model (RSCEM); assay type: in vivo
Source text: The ability of polyphenol analogs to treat, prevent and/or mitigate one or more symptoms of stroke can also be evaluated in in vivo assays. Such assays are known in the art and find use. One applicable in vivo screening assay is the rabbit clot embolic stroke model, discussed, e.g., in Lapchak, et al., Stroke (2002) 33(9):2279-84 and Lapchak, Exp Neurol. (2007) 205(2):407-13. The rabbit small clot embolic stroke model (RSCEM) and rabbit large clot embolic stroke model (RLCEM) can be used to determine the potential neuroprotective properties and safety profile of test polyphenol analogs after an embolic stroke. Rabbits are embolized by injecting small blood clots (RSCEM) or large blood clots (RLCEM) into the cerebral circulation. Behavioral analysis is conducted 24 hours later, allowing for determination of the effective stroke dose (ES50) or clot amount (milligrams) that produces severe neurological deficits in 50% of rabbits. A drug is considered neuroprotective if it increases the ES50 compared with the vehicle-treated control group.
Either vehicle or bolus injections of chlorogenic acid were administered intravenously over 1 minute starting 5 minutes following embolization using a suspension of small-sized blood clots. In this series of studies, CGA was administered at 50 mg/kg. Behavioral analysis was conducted at 24 hours following treatment, which allowed for the construction of quantal dose-response analysis curves. […] For the superimposed graphs, normal animals are plotted on the y-axis at 0% and abnormal animals are plotted at 100%. […] Moreover, CGA increased the P50 value (the clot dose that produces abnormality in 50% of a treatment group) compared to vehicle control. For a detailed discussion of the methods used to fit the quantal data to a sigmoidal curve, see Zivin and Waud. The pharmacology of chlorogenic acid in the rabbit small clot embolic stroke model (RSCEM) has been published (Lapchak, Exp Neurol. 2007 205(2):407-13). In the manuscript, it is shown that CGA has a therapeutic window of 60 minutes in the RSCEM. FIG. 2 presents the therapeutic window data.
Using the RSCEM assay described above for CGA, the effects of Fisetin (50 mg/kg) on behavioral outcome measured 24 hours following embolization is tested.

Nrf2 = Nrf2 induction, SDS-PAGE and Western blotting of nuclear extracts; assay type: cell-based; details: cells treated 1, 2 and 4 hr at most protective concentration
Description: SDS-PAGE and immunoblotting. For immunoblotting of Nrf2, nuclear extracts were prepared as described (Schreiber, et al., Nucleic Acids Res. (1989) 17 (15), 6419) from untreated cells and cells treated with the Fisetin derivatives for 1, 2 and 4 hr. Fisetin was used as a positive control. […] Protein concentrations were determined using the BCA protein assay (Pierce). Equal amounts of protein were solubilized in 2.5× SDS-sample buffer, separated on 10% SDS-polyacrylamide gels and transferred to nitrocellulose. Equal loading and transfer of the samples was confirmed by staining the nitrocellulose with Ponceau-S. Transfers were blocked for 1 hr at room temperature with 5% nonfat milk in TBS/0.1% Tween 20 and then incubated overnight at 4° C. in the primary antibody diluted in 5% BSA in TBS/0.05% Tween 20. The primary antibodies used were: anti-Nrf2 (#SC13032; 1/1000) from Santa Cruz Biotechnology (Santa Cruz, Calif.) and anti-β-actin (#5125; 1/20,000) from Cell Signaling (Beverly, Mass.). The transfers were rinsed with TB S/0.05% Tween 20 and incubated for 1 hr at room temperature in horseradish peroxidase-goat anti-rabbit or goat anti-mouse (Biorad, Hercules, Calif.) diluted 1/5000 in 5% nonfat milk in TBS/0.1% Tween 20. The immunoblots were developed with the Super Signal reagent (Pierce, Rockford, Ill.).
The transcription factor Nrf2 plays a key role in regulating GSH metabolism in many different cell types (Lewerenz, et al., Antioxidant & Redox Signaling. (2011) 14, 1449-1465). We have shown that Fisetin can induce Nrf2 and this correlates with its ability to enhance GSH levels (Maher, P. et al., Genes. Nutr. (2009) Sep. 10). To determine if the derivatives which can maintain GSH levels do so by increasing Nrf2 we looked at Nrf2 levels in the nuclei of derivative-treated cells using Fisetin as a positive control (Table 4). […] This was particularly true for the derivatives based on the quinoline scaffold where none of them increased Nrf2 despite being very effective at maintaining GSH levels.
The ability of the derivatives that maintain GSH levels to induce the transcription factor Nrf2 was assayed by SDS-PAGE and Western blotting of nuclear extracts of untreated and derivative-treated cells. Fisetin treatment was used as a positive control.

N9 microglial cells = experiment: anti-inflammatory assay, LPS-induced microglial activation (NO release); assay type: cell-based, mouse; details: bacterial lipopolysaccharide, derivative 1-10 μM, 24 hr
Description: Anti-inflammatory assay. Mouse N9 microglial cells plated in DME with 7.5% DFCS were treated with 10 μg/ml bacterial lipopolysaccharide (Sigma) alone or in the presence of the Fisetin derivatives (1-10 μM) or Fisetin (10 μM) as a positive control. After 24 hr the medium was removed, spun briefly to remove floating cells and 100 μl assayed for NO using 100 μl of the Griess Reagent (Sigma) in a 96 well plate. After incubation for 10 min at room temperature the absorbance at 550 nm was read on a microplate reader.
Three secondary screens allowed assessment of three key activities of Fisetin that are highly relevant to stroke, as well as other neurological disorders: maintenance of glutathione (GSH), the major endogenous cellular antioxidant, inhibition of LPS-induced microglial activation, an indicator of anti-inflammatory activity and PC12 cell differentiation, a measure of neurotrophic activity. All of these activities are relevant to the nerve cell loss seen in stroke (Gelderblom, et al., Stroke. 2009, 40 (5), 1849-1857; Pandya, et al., Cent. Nerv. Syst. Agents. Med. Chem. (2011) Apr. 27; Lewerenz, et al., J. Neurochem. (2010) 113 (2), 502-504). […] To assess GSH maintenance, total intracellular GSH levels after a 24 hr treatment with the compound both in the absence and presence of glutamate, an inducer of GSH loss and oxidative stress (Tan, et al., Curr. Top. Med. Chem. (2001) 1, 497-506; Maher, et al., Free Radical Research. (2006) 40 (10), 1105-1111) was measured Inhibition of LPS-induced microglial activation was determined by treating N9 mouse microglial cells with LPS alone and in the presence of the compounds and assaying NO release into the medium 24 hr later (Zheng, et al., Int. Immunopharmacol. (2008) 8, (3), 484-494). PC12 cell differentiation was determined by treating PC12 cells with the compounds and looking at neurite outgrowth after 24 hr. In all cases, Fisetin was used as a positive control (Sagara, et al., J. Neurochem. (2004) 90, 1144-1155).
The roles of the four different hydroxyl groups in the activity of Fisetin were studied. […] Cell viability was determined after 24 hr by the MTT assay. The ability to maintain GSH (GSH) was determined by treating HT22 cells with different doses of each derivative (1-10 μM) in the presence of 5 mM glutamate. After 24 hr cell extracts were prepared and analyzed for total GSH. Fisetin (10 μM) was used as a positive control. The ability to induce PC12 cell differentiation (PC12 diff'n) was determined by treating PC12 cells in N2 medium with different doses of each derivative (1-10 μM) for 24 hr. Differentiation was assessed by visual inspection with Fisetin (10 μM) as a positive control. Anti-inflammatory activity (microglia) was assessed in N9 microglial cells treated with bacterial lipopolysaccharide alone or in the presence different doses of each derivative (1-10 μM) for 24 hr. Fisetin was used as a positive control. TEAC values, a measure of direct antioxidant activity, were determined using the ABTS+ decolorization assay.

PC12 cells = experiment: glucose starvation assay; assay type: cell-based; details: PC12 cells starved for glucose, MTT 24 hr
Description: FIG. 5C—PC12 cells were glucose-deprived then were incubates in the absence or presence of Baicalein. Cell viability was determined 24 hr later using the MTT assay. […] When these cells are starved for glucose, there is approximately 70% maximal survival in the presence of NGF. Baicalein promotes over 80% survival (FIG. 5C).

Row | Molecule | Nrf2 (induction of transcription factor Nrf2) (Nrf2) | microglia (anti-inflammatory activity) (N9 microglial cells) [%] | other results
1 | O=C(/C=C/c1ccc(O)c(O)c1)O[C@@H]1C[C@](O)(C(=O)O)C[C@@H](O)[C@H]1O [Chlorogenic Acid, 1,3,4,5-tetrahydroxy-cyclohexanecarboxylic acid 3-(3,4-dihydroxycinnamate)] |  |  | therapeutic window [1]: 60 min; behavior when administered 1 hour following embolization ([2]; 1 hour following embolization): effective at improving behavior; behavior when administered 3 hours following embolization ([2]; 3 hours following embolization): neither improve behavior; therapeutic window ([2]; time post-embolization, FIG. 2): 60 min
2 | CN(C)c1ccc(-c2oc3c(ccc4ccccc43)c(=O)c2O)cc1 [CMS-118, 2-(4-(dimethylamino)phenyl)-3-hydroxy-4H-benzo[h]chromen-4-one] | No | 0 | 
3 | Cc1cc(O)c(C(=O)/C=C/c2ccc(O)c(O)c2)cc1C [CMS-011, (E)-3-(3,4-dihydroxyphenyl)-1-(2-hydroxy-4,5-dimethylphenyl)prop-2-en-1-one] | Yes | 94 | 
4 | O=C(/C=C/c1ccc(O)c(O)c1)c1ccc2ccccc2c1O [CMS-034, (E)-3-(3,4-dihydroxyphenyl)-1-(1-hydroxynaphthalen-2-yl)prop-2-en-1-one] | Yes | 75 | 
5 | Cc1cc2oc(-c3ccc(N(C)C)cc3)c(O)c(=O)c2cc1C [CMS-117, 2-(4-(dimethylamino)phenyl)-3-hydroxy-6,7-dimethyl-4H-chromen-4-one] | No | 11 | 
6 | Cc1cc2oc(-c3ccc(N4CCCC4)cc3)c(O)c(=O)c2cc1C [CMS-122, 3-hydroxy-6,7-dimethyl-2-(4-(pyrrolidin-1-yl)phenyl)-4H-chromen-4-one] | No | 0 | 
7 | NGF: NGF, comparator giving approximately 70% maximal survival of glucose-starved PC12 cells |  |  | survival (PC12 cells): approximately 70%
